Values of other authors, collected in patent publication US20240350480A1, “STABLE PHARMACEUTICAL COMPOSITION OF METHYLNALTREXONE FOR AN ORAL ADMINISTRATION” (Lupin Limited, priority 2023, published 2024).

Settings: oral administration

## C[N+]1(CC2CC2)CC[C@]23c4c5ccc(O)c4O[C@H]2C(=O)CC[C@@]3(O)[C@H]1C5.[Br-] (stereo partly shown) [methylnaltrexone]
  Methylnaltrexone absorbed into the bloodstream: less than 5%
